# Columns and labels:
# Type in all cases: cell-based, mouse
# [1] = system: α7 integrin (LacZ reporter in α7βgal+/− myoblasts); experiment: Myoblast α7+/LacZ integrin FDG assay (Burkin assay in myoblasts, 96-well); settings: for Burkin Assay in Myoblasts, signal relative to DMSO: α7+/LacZ myoblasts, 96-well
# [2] = system: α7 integrin (LacZ reporter in α7+/LacZ myotubes); experiment: Myotube α7 integrin FDG assay (Burkin assay in myotubes, 96-well); settings: for Burkin Assay in Myotubes, value relative to DMSO: SU9516 analogs, 96-well, N=3-6
# [3] = system: β-galactosidase in CMV-LacZ C2C12 myoblasts; experiment: CMV-LacZ secondary screen in C2C12 myoblasts (β-Gal stabilizing assay); settings: for CMV-LACZ in Myoblasts, value relative to DMSO: SU9516 analogs, C2C12 CMV-LacZ, N=2; for CMV-LACZ in Myoblasts (β-galactosidase activity relative to DMSO): CMV-LacZ C2C12 myoblasts
# Outline: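 Dose-response runs at 0.5–40 μM (0.5, 1, 5, 10, 20, 40 μM; N=2 per point) used a clonal C2C12 line carrying CMV-LacZ. Cells were assayed as myoblasts or as differentiated myotubes, and β-galactosidase levels were read with the FDG fluorogenic substrate.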
# [4] = system: β-galactosidase in CMV-LacZ C2C12 myotubes; experiment: CMV-LacZ secondary screen in C2C12 myotubes (β-Gal stabilizing assay); settings: for CMV-LACZ in Myotubes, value relative to DMSO: SU9516 analogs, C2C12 CMV-LacZ, N=2; for CMV-LACZ in Myotubes, signal relative to DMSO: C2C12 CMV-LacZ myotubes, fold relative to DMSO
# Outline: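 β-Gal level was the read-out, measured in a clonal C2C12 line expressing LacZ from a CMV promoter. Dose-response curves used six concentrations, 0.5 μM up to 40 μM, with duplicate points.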
# [5] = Mus musculus, Myoblast, 48 h, read-out: Burkin Assay in Myoblasts, value relative to DMSO
compound,measurement,setting,value
COc1ccccc1/C=C1\C(=O)Nc2ccccc21 [MLS001202634-01],fold induction at 0.5 µM,[1]; [5],1.21
same,fold induction at 1 µM,[1]; [5],1.1
same,fold induction at 5 µM,[1]; [5],1.14
same,fold induction at 10 µM,[1]; [5],1.31
same,fold induction at 20 µM,[1]; [5],0.994
same,fold induction at 40 µM,[1]; [5],0.931
same,"Burkin Assay in Myotubes, value relative to DMSO",[2]; 0.5 uM,0.9928
same,"Burkin Assay in Myotubes, value relative to DMSO",[2]; 1 uM,1.1156
same,"Burkin Assay in Myotubes, value relative to DMSO",[2]; 5 uM,0.9675
same,"Burkin Assay in Myotubes, value relative to DMSO",[2]; 10 uM,1.139
same,"Burkin Assay in Myotubes, value relative to DMSO",[2]; 20 uM,0.9473
same,"Burkin Assay in Myotubes, value relative to DMSO",[2]; 40 uM,1.289
same,"CMV-LACZ in Myoblasts, value relative to DMSO",[3]; 0.5 uM,1.0500
same,"CMV-LACZ in Myoblasts, value relative to DMSO",[3]; 1 uM,1.0071
same,"CMV-LACZ in Myoblasts, value relative to DMSO",[3]; 5 uM,1.1287
same,"CMV-LACZ in Myoblasts, value relative to DMSO",[3]; 10 uM,1.0990
same,"CMV-LACZ in Myoblasts, value relative to DMSO",[3]; 20 uM,1.0817
same,"CMV-LACZ in Myoblasts, value relative to DMSO",[3]; 40 uM,0.9217
same,"CMV-LACZ in Myotubes, value relative to DMSO",[4]; 0.5 uM,0.9582
same,"CMV-LACZ in Myotubes, value relative to DMSO",[4]; 1 uM,1.0073
same,"CMV-LACZ in Myotubes, value relative to DMSO",[4]; 5 uM,1.2348
same,"CMV-LACZ in Myotubes, value relative to DMSO",[4]; 10 uM,0.9661
same,"CMV-LACZ in Myotubes, value relative to DMSO",[4]; 20 uM,0.9750
same,"CMV-LACZ in Myotubes, value relative to DMSO",[4]; 40 uM,0.9340
COc1cccc(CN2CCN(Cc3ccco3)CC2)c1.O=C(O)C(=O)O [MLS001211139-01],"Burkin Assay in Myoblasts, signal relative to DMSO",[1]; 0.5 uM,1.2392
same,"Burkin Assay in Myoblasts, signal relative to DMSO",[1]; 1 uM,1.136
same,"Burkin Assay in Myoblasts, signal relative to DMSO",[1]; 5 uM,1.065
same,"Burkin Assay in Myoblasts, signal relative to DMSO",[1]; 10 uM,0.9683
same,"Burkin Assay in Myoblasts, signal relative to DMSO",[1]; 20 uM,1.218
same,"Burkin Assay in Myoblasts, signal relative to DMSO",[1]; 40 uM,1.216
same,"Burkin Assay in Myotubes, α7 integrin LacZ reporter signal relative to DMSO",[2]; 0.5 uM,1.167
same,"Burkin Assay in Myotubes, α7 integrin LacZ reporter signal relative to DMSO",[2]; 1 uM,1.288
same,"Burkin Assay in Myotubes, α7 integrin LacZ reporter signal relative to DMSO",[2]; 5 uM,1.003
same,"Burkin Assay in Myotubes, α7 integrin LacZ reporter signal relative to DMSO",[2]; 10 uM,0.9425
same,"Burkin Assay in Myotubes, α7 integrin LacZ reporter signal relative to DMSO",[2]; 20 uM,0.8283
same,"Burkin Assay in Myotubes, α7 integrin LacZ reporter signal relative to DMSO",[2]; 40 uM,0.7547
same,CMV-LACZ in Myoblasts (β-galactosidase activity relative to DMSO),[3]; 0.5 uM,0.9691
same,CMV-LACZ in Myoblasts (β-galactosidase activity relative to DMSO),[3]; 1 uM,0.7347
same,CMV-LACZ in Myoblasts (β-galactosidase activity relative to DMSO),[3]; 5 uM,0.9500
same,CMV-LACZ in Myoblasts (β-galactosidase activity relative to DMSO),[3]; 10 uM,0.8608
same,CMV-LACZ in Myoblasts (β-galactosidase activity relative to DMSO),[3]; 20 uM,1.0659
same,CMV-LACZ in Myoblasts (β-galactosidase activity relative to DMSO),[3]; 40 uM,0.8744
same,"CMV-LACZ in Myotubes, signal relative to DMSO",[4]; 0.5 uM,0.9281
same,"CMV-LACZ in Myotubes, signal relative to DMSO",[4]; 1 uM,0.8948
same,"CMV-LACZ in Myotubes, signal relative to DMSO",[4]; 5 uM,1.1755
same,"CMV-LACZ in Myotubes, signal relative to DMSO",[4]; 10 uM,1.0196
same,"CMV-LACZ in Myotubes, signal relative to DMSO",[4]; 20 uM,0.8259
same,"CMV-LACZ in Myotubes, signal relative to DMSO",[4]; 40 uM,1.0224
CC(O)CNc1nc2c(c(=O)n(Cc3ccc(Br)cc3)c(=O)n2C)n1C (stereo not drawn) [MLS001212319-01],"Burkin Assay in Myoblasts, signal relative to DMSO",[1]; 0.5 uM,1.05
same,"Burkin Assay in Myoblasts, signal relative to DMSO",[1]; 1 uM,1.026
same,"Burkin Assay in Myoblasts, signal relative to DMSO",[1]; 5 uM,0.9412
same,"Burkin Assay in Myoblasts, signal relative to DMSO",[1]; 10 uM,0.8826
same,"Burkin Assay in Myoblasts, signal relative to DMSO",[1]; 20 uM,0.8529
same,"Burkin Assay in Myoblasts, signal relative to DMSO",[1]; 40 uM,0.782
same,"Burkin Assay in Myotubes, α7 integrin LacZ reporter signal relative to DMSO",[2]; 0.5 uM,1.134
same,"Burkin Assay in Myotubes, α7 integrin LacZ reporter signal relative to DMSO",[2]; 1 uM,1.139
same,"Burkin Assay in Myotubes, α7 integrin LacZ reporter signal relative to DMSO",[2]; 5 uM,0.9476
same,"Burkin Assay in Myotubes, α7 integrin LacZ reporter signal relative to DMSO",[2]; 10 uM,0.9201
same,"Burkin Assay in Myotubes, α7 integrin LacZ reporter signal relative to DMSO",[2]; 20 uM,0.7396
same,"Burkin Assay in Myotubes, α7 integrin LacZ reporter signal relative to DMSO",[2]; 40 uM,0.631
same,CMV-LACZ in Myoblasts (β-galactosidase activity relative to DMSO),[3]; 0.5 uM,0.9129
same,CMV-LACZ in Myoblasts (β-galactosidase activity relative to DMSO),[3]; 1 uM,1.2040
same,CMV-LACZ in Myoblasts (β-galactosidase activity relative to DMSO),[3]; 5 uM,1.0840
same,CMV-LACZ in Myoblasts (β-galactosidase activity relative to DMSO),[3]; 10 uM,0.8600
same,CMV-LACZ in Myoblasts (β-galactosidase activity relative to DMSO),[3]; 20 uM,1.2056
same,CMV-LACZ in Myoblasts (β-galactosidase activity relative to DMSO),[3]; 40 uM,1.0259
same,"CMV-LACZ in Myotubes, signal relative to DMSO",[4]; 0.5 uM,1.1524
same,"CMV-LACZ in Myotubes, signal relative to DMSO",[4]; 1 uM,0.8152
same,"CMV-LACZ in Myotubes, signal relative to DMSO",[4]; 5 uM,0.9525
same,"CMV-LACZ in Myotubes, signal relative to DMSO",[4]; 10 uM,0.9253
same,"CMV-LACZ in Myotubes, signal relative to DMSO",[4]; 20 uM,0.9965
same,"CMV-LACZ in Myotubes, signal relative to DMSO",[4]; 40 uM,1.0706

# From patent US9980943B2, “Methods of treating muscular dystrophy” (BOARD OF REGENTS OF THE NEVADA SYSTEM OF HIGHER EDUCATION, …, priority 2013, dated 2018)
